Assay results from publication PMC5882710, “Amphotericin B-conjugated polypeptide hydrogels as a novel innovative strategy for fungal infections” (Royal Society Open Science, 2018).
Values after ≈ are worked out from the molar mass of the structure shown. Read-outs that look alike come from different tables or passages of the source.

Tests used:
Candida albicans [1] = assay: microbe, parasite or virus in culture; format: cell-based; details: for MBC / MIC: Candida albicans; for MBC: read-out: MBC; for MIC: read-out: MIC
Procedure: (§1) The minimum inhibitory concentration (MIC) of the Dex, AmB, Nap-FFDKY, Npx-FFDKY, Fmoc-FFDKY, Nap-AmB, Npx-AmB and Dex-AmB hydrogels was determined by a serial 2-fold dilution of test samples. Fourteen different concentrations of drugs and hydrogels were prepared in DMF solution. One millilitre of the fungal strain […] colony-forming unit (CFU)/tube was inoculated into each tube containing different concentrations (1 ml) of test samples and incubated at 28°C (200 rpm) for 24 h. The MIC was defined as the minimum concentration of the sample inhibiting the visible growth of the microorganism. The experiment was repeated at least three times. Based on the values of MIC, 0.1 ml of the fungal strain containing different concentrations of test samples which inhibited the visible growth of the microorganism was subcultivated on the Sabouraud's dextrose agar plates, and incubated at 28°C for 48 h. The minimum bactericidal concentration (MBC) determination was defined as the minimum concentration of the sample sterilizing the visible growth of the microorganism (lower than 5 CFU/plate). The experiment was repeated at least three times. Based on the values of MIC, the fungal strain containing 1 × MIC and 2 × MIC concentrations of test samples was incubated at 28°C. A test suspension containing 0.1 ml was taken out and used to evaluate fungus colonies at 0, 1, 2, 4, 6, 8, 12 and 24 h.

[2] = low bioavailability; cited from earlier work
Source text: Invasive fungal infection has a significant influence on animal and plant life, which is a major cause of mortality that kills approximately 1.5 million people every year. Amphotericin B (AmB) is a broad-spectrum antifungal macrolide polyene antibiotic. Its antifungal effect is exerted by forming complexes with membrane sterols to allow the increase in the permeability of the fungal membrane. AmB is the most common antifungal agent used in clinical practice despite strong side-effects with low solubility and low bioavailability (less than 0.9%). Many researchers attempt ...

Candida albicans [3] = assay: Time-kill curves at 1 x MIC and 2 x MIC; format: cell-based; details: C. albicans, 28°C, sampled 0, 1, 2, 4, 6, 8, 12 and 24 h, n = 3
Procedure: as §1

## C[C@@H]1[C@H](O)[C@@H](C)/C=C/C=C/C=C/C=C/C=C/C=C/C=C/[C@H](O[C@@H]2O[C@H](C)[C@@H](O)[C@H](N)[C@@H]2O)C[C@@H]2O[C@](O)(C[C@@H](O)C[C@@H](O)[C@H](O)CC[C@@H](O)C[C@@H](O)CC(=O)O[C@H]1C)C[C@H](O)[C@H]2C(=O)O [AmB, Amphotericin B]
Candida albicans [1]; C. albicans, 0.1 ml subcultivated on Sabouraud's dextrose agar, 28°C, 48 h, lower than 5 CFU/plate, repeated at least three times
  MBC: 130 µg/mL (≈ 141 µM)
Candida albicans [1]; C. albicans, serial 2-fold dilution, 14 concentrations prepared in DMF, 1 ml fungal strain 10^18 CFU/tube, 28°C, 200 rpm, 24 h, visible growth, repeated at least three times
  MIC: 4.06 µg/mL (≈ 4.39 µM)
Candida albicans [1]; supplement Fig. S21
  MBC: 130 µg/mL (≈ 141 µM)
  MIC: 4.06 µg/mL (≈ 4.39 µM)
[2]
  bioavailability: less than 0.9%
Candida albicans [3]
  time for which antifungal activity is exhibited in time-kill curves: 2 h

## C[C@@H]1C[C@H]2[C@@H]3CCC4=CC(=O)C=C[C@]4(C)[C@@]3(F)[C@@H](O)C[C@]2(C)[C@@]1(O)C(=O)CO [Dex, dexamethasone]
Candida albicans [1]; MIC/MBC test, serial 2-fold dilution, 28°C, 24 h
  antifungal effect against C. albicans (in words): less antifungal effective
